Assay results reported in patent US12251373B2, “Compounds and methods of treating retinal degeneration” (CASE WESTERN RESERVE UNIVERSITY, priority 2017, dated 2025).

Assays:
[1] = biological target: T1, rod opsin (Bos taurus, UniProt P02699); assay: Raman spectroscopy of rod opsin crystal soaked with compound; format: binding, bovine; details: Raman difference spectrum, FIG. 4f
T1 construct: ROS membranes were isolated from bovine retinas under dim red light; from tissue; host or cells: bovine retina rod outer segment (ROS) membranes, bleached with hydroxylamine
T1 sequence (P02699 whole entry): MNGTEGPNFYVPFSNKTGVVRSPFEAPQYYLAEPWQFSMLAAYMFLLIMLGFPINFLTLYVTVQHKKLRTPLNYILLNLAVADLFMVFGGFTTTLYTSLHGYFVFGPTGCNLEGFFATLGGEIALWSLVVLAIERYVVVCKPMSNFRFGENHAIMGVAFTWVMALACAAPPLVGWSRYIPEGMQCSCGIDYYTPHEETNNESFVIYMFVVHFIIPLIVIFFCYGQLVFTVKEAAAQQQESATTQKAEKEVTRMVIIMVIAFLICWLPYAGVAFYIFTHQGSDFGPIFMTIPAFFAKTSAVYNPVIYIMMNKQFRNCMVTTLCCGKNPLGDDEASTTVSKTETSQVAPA
Description: Bleached ROS membranes bearing opsin were solubilized with either 20 mM BTP, pH 7.5, or 50 mM MES, pH 6.4, together with 130 mM NaCl, 1 mM MgCl2, 10% sucrose, and 1% n-octyl-β-D-glucopyranoside (OG) for 1 h at 4° C. Insoluble debris was removed by centrifugation at 16,000 g for 5 min at 4° C. Crystallization screens were performed by the sparse matrix crystallization method based upon previously published crystallization conditions for rhodopsin and opsin. Each hanging drop was prepared by mixing equal volumes of solubilized opsin and a reservoir solution containing 3.0-3.6 M ammonium sulfate in 0.05-0.1 M sodium acetate buffer, pH 5.2-5.6. Crystals appeared within 2-5 days at 4° C. and were analyzed directly by Raman spectroscopy.
Here, we used Raman microscopy to test if YC-001 binds rod opsin in a single crystal. A rod opsin crystal was transferred into 4.5 μL of fresh reservoir solution on a siliconized glass coverslip and transferred into a hanging drop crystallization tray where the well contained 1 mL of the same solution. An 80 mW, 647.1 nm Kr^+ laser beam (Innova 70 C, Coherent, Palo Alto, CA, USA) was focused on the rod opsin crystal with a 20× objective. The Raman spectrum of the rod opsin crystal was accumulated over 100×1 s. […]

[2] = Quantification of YC-001 in mouse eye by HPLC; format: in vivo
Description: To measure the amount of YC-001 in the eye following systemic delivery, YC-001 was administered to C57BL6 mice by i.p. injection at a dose of 200 mg kg^−1 bw. Mice then were euthanized at 30 min, 3 h and 24 h after these injections, and their eyes were removed for analysis. Eyes from two mice under the same treatment were homogenized on ice in 1 mL of PBS:methanol (1:1 ratio). Four-mL of hexanes were then added to the homogenized sample, and the mixture was vortexed for 15 s. The mixture was centrifuged at 3,220 g for 15 min at 4° C. to separate the hexanes from the aqueous layer. From the top hexane layer, 3.5 mL was transferred to a glass vial. This sample was then dried in a Savant speed vacuum concentrator (Thermofisher, Waltham, Massachusetts, USA) and dissolved in 300 μL methanol. One hundred-μL of dissolved sample were injected into an HPLC system connected to an Agilent Sil column (5 μm, 4.6×250 mm; Agilent Technologies, Santa Clara, CA) for separation with 10% ethyl acetate in hexanes at a flow rate 1.4 mL min^−1. A chromatogram of absorption at 340 nm was then obtained. A YC-001 standard was subjected to the same procedures as the ocular samples and used to establish a retention time at 13.2 min. By comparing ocular samples to its standard curve of YC-001, the amount of YC-001 was then quantified in pmol eye^−1 at different time points after its systemic administration. The identity of YC-001 in the peak fraction with a retention time of 13.2 min was confirmed by LC-MS using the same chromatography method as applied for HPLC.

[3] = Pharmacokinetics of YC-001 in mouse plasma; format: in vivo
Description: C57BL/6J mice ranging from 8 to 12 weeks of age were purchased from Jackson Labs. For administration, YC-001 was dissolved in DMSO at 160 mg mL^−1. To obtain the blood clearance curve for YC-001, each animal was treated by intraperitoneal injection of YC-001 at 200 mg kg^−1 bw. After administration, blood was collected at 5, 10, 15, 20, 30, 45, 60 and 90 min from the orbital sinus and dropped into K2EDTA blood collection tubes (FisherScientific). Mice were anesthetized with a ketamine/xylazine cocktail two min before blood collection. The blood samples were then incubated at 4° C. for 2 h before centrifugation at 1,800×g for 20 min to collect the supernatant that was the plasma. Plasma was mixed with twice the volume of methanol and then stored at −80° C. YC-001 was extracted from the samples (300 to 600 μL) with 0.6 mL chloroform. The chloroform fraction was collected, dried, and the extracted organic compounds were dissolved in 0.25 mL of methanol. One hundred-μL of each sample was injected onto an Eclipse XDB-C18 column (4.6×150 mm, 5 μm) and YC-001 was detected and quantified as described in the section Metabolic stability of YC-001.

[4] = biological target: T2, human rod opsin C110Y (Homo sapiens, UniProt P08100, C110Y); assay: Cell surface immunostain for rhodopsin mutants in NIH3T3 cells; format: cell-based; details: YC-001 treatment
T2 construct: expressed in transfected cells; host or cells: NIH3T3, transfected with pcDNA3.1-hOpsin mutant
Description: (§1) Human rhodopsin cDNA was placed into the pcDNA3.1(+) vector (pcDNA3.1-hOpsin). Site directed mutagenesis was performed following the QuickChange II site-directed mutagenesis kit (Agilent Technologies Inc.). Primers for the following mutations were as follows: […]
(§2) DNA vectors with rhodopsin mutations were confirmed by Sanger sequencing. After NIH3T3 cells were transfected with pcDNA3.1-hOpsin or its mutants for 24 h, these cells were resuspended and seeded into a 96-well plate with an optic bottom (Corning). […] Each condition was repeated in three wells. The treated plate was covered in tin foil and incubated at 37° C. with 5% CO2 for 24 h. Cells were then immunostained with Alexa […] 488-conjugated B6-30 anti-rhodopsin antibody. Cells were not exposed to detergents so that cell membranes were kept intact and only rhodopsin on the cell surface was immunostained. Alexa 488 fluorescence was imaged by the ImageExpress (Molecular Devices) high-content imager with a 20× objective. Medicinal Chemistry of YC-001

[5] = biological target: T3, human rod opsin G106R (Homo sapiens, UniProt P08100, G106R); assay: as above; format: cell-based; details: YC-001 treatment
T3 construct: expressed in transfected cells; host or cells: NIH3T3, transfected with pcDNA3.1-hOpsin mutant
Description: as §1, §2

[6] = biological target: T4, human rod opsin P267L (Homo sapiens, UniProt P08100, P267L); assay: as above; format: cell-based; details: YC-001 treatment
T4 construct: expressed in transfected cells; host or cells: NIH3T3, transfected with pcDNA3.1-hOpsin mutant
Description: as §1, §2

In the case of `O=C1OCC(c2ccc(Cl)s2)=C1c1cccs1` [YC-001], the “mode of binding to rod opsin” value [1] is reported as “non-covalent binding”, the “amount of YC-001 per eye” value ([2]; 0.5 h after i.p. injection at 200 mg kg−1 bw) is reported as “About 70 pmol per eye” and the “amount of YC-001 per eye” value ([2]; 3 h after i.p. injection at 200 mg kg−1 bw) is reported as 280 pmol per eye. The “amount of YC-001 per eye” value ([2]; 24 h after i.p. injection at 200 mg kg−1 bw) was “undetectable”, the “elimination rate constant (Ke)” value ([3]; 0.693/T1/2) was 0.0201 min⁻¹ and the “volume of distribution (Vd)” value ([3]; Dose/C0) was 27.5 L kg−1 bw. For the same compound, the Clearance ([3]; Ke×Vd) was 0.552 L min−1 kg−1 bw, the “cell surface staining of mutant opsin” value [4] was “not effective” and the “cell surface staining of mutant opsin” value [5] was “increased significantly”. For the same compound, the “cell surface staining of mutant opsin” value [6] was “increased significantly”.
